In patent publication US5030458A, “Method for preventing diet-induced carnitine deficiency in domesticated dogs and cats” (priority 1989, dated 1991):
Where “and” joins values, the source holds several entries; their conditions need not be identical. Identical values can stand only once. Entries after “also recorded” stand apart in the source; their conditions may differ. Like-named read-outs stand apart in the source and are kept apart here.

Key:
[1] = system: cardiomyopathy; conditions: restoration toward normal of deficient L-Carnitine levels; dogs; cited from earlier work
[2] = Renal reabsorption of L-Carnitine in dogs; type: in vivo, dog
[3] = human; approaching; cited from earlier work
[4] = system: cardiomyopathy; conditions: restoration toward normal of deficient L-Carnitine levels; hamsters; cited from earlier work
[5] = Plasma carnitine concentrations in Greyhound dogs on commercial dog food supplemented with L-Carnitine (ground beef); type: in vivo; conditions: for concentration at 168 h / concentration at 336 h: dog, plasma, po, 350 mg/animal/day
Protocol: Six apparently healthy Greyhound dogs were determined to be normal by physical examination, fecal flotation, complete blood count, serum biochemical profile, ECG, and echocardiography. They were fed a standard commercial dog food diet free choice for a one-month control period. Control plasma samples (as well as subsequent test samples) were obtained following an eight-hour fast on two consecutive days for analysis of total, free, and esterified L-Carnitine concentration. The average of the plasma L-Carnitine concentration on two consecutive days was taken for each dog and each measuring period. Following the control period, all of the dogs were continued for two weeks on the standard commercial dog food diet supplemented with L-Carnitine. The L-Carnitine supplement was in the form of 0.5 kg per dog per day of raw frozen lean ground beef. This was equivalent to a daily supplement of 350 mg. of L-Carnitine per dog. Plasma samples were drawn on days 7 and 8 (averaged for the one-week measurement) and days 13 and 14 (averaged for the two-week measurement) for L-Carnitine analysis. Differences between the means of each test period and control were determined by the Student's t test.

[6] = rats; cited from earlier work
[7] = cited from earlier work
[8] = cited from earlier work; remark: listed apart in the source
[9] = mammalian species; cited from earlier work
[10] = system: fatty acid oxidation in muscle homogenates; conditions: certain L-Carnitine deficient patients; cited from earlier work
[11] = Changes in serum L-Carnitine following oral administration of gamma-butyrobetaine; type: in vivo; conditions: administering GBB to a dog
Text: Changes in serum L-Carnitine following oral
administration of 5 grams of gamma-butyro-betaine. Amounts

[12] = system: carnitine deficiency syndromes; conditions: humans; U.S. Pat. No. 4,382,092; cited from earlier work

C[N+](C)(C)C[C@H](O)CC(=O)[O-] [L-Carnitine]
Myocardial function [1]: improved myocardial function | Renal reabsorption, average [2]: approximately 75% | Renal reabsorption [3]: ~100% | Myocardial function [4]: improved myocardial function | concentration ([5]; Week 1, individual dogs 1-6, ground beef 0.5 kg/day/dog (350 mg L-Carnitine/day), 10080 min, read-out: Plasma carnitine concentration, Free): 60.5 µM and 52.5 µM and 55.6 µM and 56 µM and 51.7 µM | concentration ([5]; Week 1, individual dogs 1-6, ground beef 0.5 kg/day/dog (350 mg L-Carnitine/day), 10080 min, read-out: Plasma carnitine concentration, Total): 70.7 µM and 57.2 µM and 63.1 µM and 58.1 µM and 56.3 µM | concentration ([5]; Week 2, individual dogs 1-6, ground beef 0.5 kg/day/dog (350 mg L-Carnitine/day), 20160 min, read-out: Plasma carnitine concentration, Free): 62.2 µM and 52.7 µM and 52 µM and 58.5 µM and 41 µM | concentration ([5]; Week 2, individual dogs 1-6, ground beef 0.5 kg/day/dog (350 mg L-Carnitine/day), 20160 min, read-out: Plasma carnitine concentration, Total): 65.7 µM and 58.1 µM and 56.3 µM and 66.3 µM and 43.2 µM | Plasma total L-Carnitine concentration (in words) ([5]; diet supplemented with L-Carnitine): significantly increased; also recorded: stabilizes in a range that is considered normal; also recorded: dramatically increase the plasma concentration of L-Carnitine in dogs | concentration at 168 h ([5]; Week 1, average of 6 dogs, S.D. ±3.5, ** p ≤ 0.01 vs control, read-out: Plasma carnitine concentration, Free, AVG): 55.9 µM | concentration at 168 h ([5]; Week 1, average of 6 dogs, S.D. ±6.5, * p ≤ 0.05 vs control, read-out: Plasma carnitine concentration, Total, AVG): 62.5 µM | concentration at 168 h ([5]; Week 1, individual dogs 1-6, ground beef 0.5 kg/day/dog (350 mg L-Carnitine/day), read-out: Plasma carnitine concentration, Free): 58.9 µM | concentration at 168 h ([5]; Week 1, individual dogs 1-6, ground beef 0.5 kg/day/dog (350 mg L-Carnitine/day), read-out: Plasma carnitine concentration, Total): 70.1 µM | concentration at 336 h ([5]; Week 2, average of 6 dogs, S.D. ±8.0, * p ≤ 0.05 vs control, read-out: Plasma carnitine concentration, Free, AVG): 51.9 µM | concentration at 336 h ([5]; Week 2, average of 6 dogs, S.D. ±8.6, read-out: Plasma carnitine concentration, Total, AVG): 57 µM | concentration at 336 h ([5]; Week 2, individual dogs 1-6, ground beef 0.5 kg/day/dog (350 mg L-Carnitine/day), read-out: Plasma carnitine concentration, Free): 44.9 µM | concentration at 336 h ([5]; Week 2, individual dogs 1-6, ground beef 0.5 kg/day/dog (350 mg L-Carnitine/day), read-out: Plasma carnitine concentration, Total): 52.4 µM | Plasma carnitine concentration, average [6]: 56.5 ± 2.2 µM | Plasma total carnitine, mean ([7]; human females): 51.5 ± 11.6 µM | Plasma total carnitine, mean ([7]; human males): 59.3 ± 11.9 µM | Solubility in water [8]: extremely soluble in water | L-Carnitine concentration in cardiac and skeletal muscle relative to serum [9]: much higher than in serum | Fatty acid oxidation in muscle homogenates [10]: restoration to normal of fatty acid oxidation

C[N+](C)(C)CCCC(=O)[O-] [gamma-butyro-betaine, gamma-butyrobetaine]
Effect on serum L-Carnitine (in words) [11]: produces a concomitant use in serum L-Carnitine | Alleviation of carnitine deficiency syndromes [12]: used successfully to alleviate carnitine deficiency syndromes in humans
